# Reference: US12527798B2, “Preservation of immune response during chemotherapy regimens” (Pharmacosmos Holding A/S, priority 2016, dated 2026)
# Like-named read-outs stand apart in the source and are kept apart here.
# Legend:
# [1] = system: MC38 tumor cells; assay type: in vivo; settings: dosing schedule not given, anti-PD-1 combination study
# Description: For all xenograft studies, nine-week old female C57BL/6 mice (C57BL/6NCrl) were implanted with MC38 tumor cells and treatment was initiated when mean tumor volume was approximately 100 mm^3. Compound I was administered in combination with oxaliplatin and […] according to the Induction and Maintenance (IM) dosing schedule, which is shown in FIG. 3.
# Briefly, Compound I (100 mg/kg) and oxaliplatin (10 mg/kg) were administered intraperitoneally (IP) once weekly for three doses and mouse […] (5 mg/kg, IP) was given twice weekly starting on Day 1 and continuing through the end of study.
# (§1) Single, two, and three drug combinations were tested and Compound I was administered 30 minutes prior to chemotherapy treatment. Complete response (CR) and partial response (PR) were calculated using standard Charles River Laboratories (CRL; RTP, NC) criteria. Body weight (BW) and health were monitored, and tumor volume was measured twice weekly. The individual tumor volume endpoint was 1000 mm^3 or Day 100, whichever came first.
# [2] = system: MC38 tumor cells; assay type: in vivo; settings: dosing schedule not given, anti-PD-L1 combination study
# Description: (§2) Anti-tumor activity of Compound I in combination with PD-L1 (clone 10F.9G2) and oxaliplatin was evaluated in the MC38 syngeneic murine colon carcinoma model. For all xenograft studies, nine-week old female C57BL/6 mice (C57BL/6NCrl) were implanted with MC38 tumor cells and treatment was initiated when mean tumor volume was approximately 100 mm^3.
# (§3) Briefly, Compound I (100 mg/kg) and oxaliplatin (10 mg/kg) were administered intraperitoneally (IP) once weekly for three doses and the checkpoint inhibitor administration was varied as depending on the dosing schedule. In the Induction (I) dosing schedule, mouse anti-PD-L1 (100 μg/animal, IP) was given twice weekly for two weeks starting on Day 1 and ending on Day 15. In the Maintenance (M) dosing schedule, mouse anti-PD-L1 (100 μg/animal, IP) was given twice weekly starting on Day 15 and continuing through the end of study. In the Induction+Maintenance (IM) dosing schedule, mouse anti-PD-L1 (100 μg/animal, IP) was given twice weekly starting on Day 1 and continuing through the end of study.
# as §1, with “first. The arms of the study included the following: • 1) vehicle • 2) Compound I+anti-PD-L1 (clone 10F.9G2), IM dosing schedule • 3) Compound I+Oxaliplatin+anti-PD-L1 (clone 10F.9G2), IM dosing schedule • 4) Oxaliplatin+anti-mouse PD-L1 (clone 10F.9G2), M dosing schedule • 5) Compound I+oxaliplatin+anti-mouse PD-L1 (clone 10F.9G2), M dosing schedule • 6) oxaliplatin+anti-mouse PD-L1 (clone 10F.9G2), I dosing schedule • 7) Compound I+oxaliplatin+anti-mouse PD-L1 (clone 10F.9G2), I dosing schedule” for “first.”
# [3] = system: MC38 tumor cells; assay type: in vivo; settings: interim data, dosing schedule not given
# Description: as §2, with “mouse anti-PD-L1” for “PD-L1”, “10F.9G2),” for “10F.9G2)”, “5-flurouracil (5-FU)” for “oxaliplatin”
# as §3, with “5-FU (75” for “oxaliplatin (10”, “doses. […]” for “doses and the checkpoint inhibitor administration was varied as depending on the dosing schedule.”
# Single, two, and three drug combinations were tested and Compound I was administered minutes prior to chemotherapy treatment. Complete response (CR) and partial response (PR) were calculated using standard Charles River Laboratories (CRL; RTP, NC) criteria. Body weight (BW) and health were monitored, and tumor volume was measured twice weekly. The individual tumor volume endpoint was 1000 mm^3 or Day 100, whichever came first. The arms of the study included the following: • 1) vehicle • 2) 5-FU+anti-PD-L1 (clone 10F.9G2), IM dosing schedule • 3) Compound I+5-FU+anti-PD-L1 (clone 10F.9G2), IM dosing schedule • 4) 5-FU+anti-mouse PD-L1 (clone 10F.9G2), M dosing schedule • 5) Compound I+5-FU+anti-mouse PD-L1 (clone 10F.9G2), M dosing schedule • 6) 5-FU+anti-mouse PD-L1 (clone 10F.9G2), I dosing schedule • 7) Compound I+5-FU+anti-mouse PD-L1 (clone 10F.9G2), I dosing schedule
# [4] = system: MC38 tumors; test: Whole-tumor interferon-gamma (Ifng) expression, PanCancer Immune Profiling Panel (Example 13); assay type: in vivo, C57BL/6 mice; settings: Compound I added to oxaliplatin or oxaliplatin/anti-PD-L1 combinations, eight days; FIGS. 28-31
# Description: Twenty-four hours after the final dose, mice were euthanized and tumors were harvested for analysis. Gene expression analysis was performed on whole tumors using the PanCancer Immune Profiling Panel. The normalized and Log 2 transformed expression level of interferon-gamma (Ifng) is plotted for each pair of treatment groups with or without Compound I. T=Compound I, O=oxaliplatin, P=anti-PD-L1.
# [5] = system: splenocytes; test: Ex vivo splenocyte stimulation, IL-2 and IFNγ ELISA after 5-FU treatment (Example 6); assay type: in vivo, C57BL/6 mice; settings: Compound I 100 mg/kg added to 5-FU 50 mg/kg, 3 daily IP doses, splenocytes stimulated with anti-CD3/CD28 72 h
# Description: C57BL/6 mice were treated with 3 daily IP doses of 50 mg/kg 5-FU±100 mg/kg Compound I. Two and seven days after the final treatment, mice were euthanized and spleens were harvested. Splenocytes were stimulated ex vivo with anti-CD3/CD28 antibodies for 72 hours and interferon gamma (IFNγ) or interleukin-2 (IL-2) levels were measured via ELISA (R&D systems). After the ex-vivo splenocyte stimulation in C57BL/6 mice, Compound I enhanced IL-2 production (FIG. 12) and preserved IFNγ production (FIG. 13) after 5-FU treatment. A potential mechanism by which Compound I enhances anti-tumor activity includes the preservation of T lymphocyte function from chemotherapy.
# [6] = system: CD4+ and CD8+ T cells; test: T cell activation (CD69, IL-2) in splenocytes of MC38 tumor-bearing mice (Example 8); assay type: in vivo; settings: Compound I added to oxaliplatin and anti-PD-L1, four days; spleen; FIGS. 16, 17
# Text: Twenty-four hours after the final dose, the mice were euthanized and spleens were harvested and processed to single-cell suspensions for T-cell analysis. Splenocytes were stained with anti-CD4, CD8, and CD69 antibodies for flow cytometric analysis. The percentage of activated CD4+ T cells was defined as the proportion of CD69+ cells within the CD8−CD4+ T cell fraction, while the percentage of activated CD8+ T cells was defined as the proportion of CD69+ cells within the CD8+CD4− T cell fraction, the results of which are shown in FIGS. 16 and 17. Additionally, splenocytes were also stimulated ex-vivo with anti-CD3/CD28 antibodies for 72 hours and were stained with anti-CD4, CD8, and IL-2 antibodies for flow cytometric analysis. The percentage of IL-2+ cells was defined as the proportion of IL-2+ cells within the […] T cell fraction, the results of which are shown in FIG. 18.
# [7] = system: CD8+ T cells; test: CFSE proliferation of CD8+ T cells in the presence of Tregs treated with Compound I (Example 9); assay type: cell-based, C57BL/6 mice; settings: splenocytes stimulated with anti-CD3/CD28 72 hours; FIG. 20
# Description: (§4) CD4+CD25+ Tregs were purified from spleens of C57BL/6 mice using a two-step magnetic bead separation process-depletion of all non-CD4+ cells followed by positive selection of CD25+ cells. Purified Tregs were cultured ex-vivo with […] antibodies and IL-2 for 48 hours with either 0, 250, or 1000 nM trilaciclib. […] The percentage of phospho-Rb+ Tregs was defined as phospho-Rb+ cells in the CD4+Foxp3+ population. […] CFSE-labeled splenocytes were stimulated ex-vivo with anti-CD3/CD28 antibodies for 72 hours in the presence or absence of Tregs treated with Compound I. Cells were stained with anti-CD4 and CD8 antibodies, and T cell proliferation was assessed by the dilution of the mean fluorescence intensity of CFSE in CD4-CD8+ T cells by flow cytometric analysis. Percent proliferation was calculated as (mean CFSE intensity of CD8+ T cells stimulated in the absence of Tregs)/(mean CFSE intensity of CD8+ T cells stimulated in the presence of Tregs)×100, the results of which are shown in FIG. 19 and FIG. 20.
# [8] = system: CT26 tumor; test: CT26 tumor growth in mice (Example 7); assay type: in vivo; settings: Compound I added to an anti-PD-L1/oxaliplatin regimen
# Description: CT26 bearing mice are treated with Compound I (IP, 100 mg/kg, weekly×3), anti-PD-L1 (IP, 5 mg/animal, biweekly to end), and/or oxaliplatin (IP, 10 mg/kg, weekly×3) and tumors were evaluated.
# [9] = system: MC38 tumors; test: Whole-tumor gene expression, PanCancer Immune Profiling Panel, two weekly doses (Examples 12 and 14); assay type: in vivo, C57BL/6 mice; settings: two weekly doses 100 mg/kg IP, p <0.05, absolute fold change >1.3
# Description: MC38 tumor-bearing C57BL/6 mice were treated with two weekly doses of Compound I (100 mg/kg, IP). One day after the last dose, mice were euthanized and tumors were harvested for analysis. Gene expression analysis was performed on whole tumors using the PanCancer Immune Profiling Panel. Normalized and Log 2 transformed expression values were used for identification of differentially expressed genes, defined using a p-value cutoff of <0.05 and absolute fold change >1.3.
# [10] = system: intra-tumor immune cells; test: EdU incorporation in intra-tumor immune cell populations of MC38 tumor-bearing mice (Example 10); assay type: in vivo, C57BL/6 mice; settings: one dose 100 mg/kg IP; EdU 6 to 48 hours after treatment; FIGS. 21, 22
# Description: MC38 tumor-bearing C57BL/6 mice were treated with one dose of Compound I (100 mg/kg, IP), followed by in vivo EdU (5-ethynyl-2′-deoxyuridine, 200 μg/mouse, IP) incorporation 6 to 48 hours after treatment with Compound I. Eighteen hours after EdU dosing, mice were euthanized and tumors were harvested for analysis. Tumors were processed to single-cell suspensions, followed by depletion of dead cells and enrichment of CD45+ immune cells prior to antibody labeling for various lymphoid and myeloid immune cell populations defined as follows: CD8+ T cells (CD4−CD8+), CD4+ T cells (CD4+CD8−Foxp3−), Tregs (CD4+CD8−Foxp3+), NK (CD3−NK1.1+), monocytic myeloid derived suppressor cells (mMDSCs, CD11b+Ly6C+Ly6G−), granulocytic myeloid derived suppressor cells (gMDSCs, CD11b+Ly6C+Ly6G+), and macrophages (CD11b+Ly6C−Ly6G−). After cell surface staining, cell samples were fixed and EdU incorporation was detected by click chemistry followed by flow cytometric analysis. Inhibition of proliferation is represented as the (% EdU+ in Compound I treated)/(% EdU+ in vehicle treated)×100 for each cell population at each time point.
# [11] = system: CDK4/6-Rb pathway; test: Phospho-Rb in purified Tregs cultured ex vivo, flow cytometry (Example 9); assay type: cell-based, C57BL/6 mice; settings: 0, 250 or 1000 nM, 48 hours; FIG. 19
# Description: as §4
# [12] = system: MC38 tumor; test: MC38 tumor volume under continuous daily dosing of Compound I with or without anti-PD-L1 (Example 16); assay type: in vivo, mice; settings: continuous Compound I (daily x 28 days, IP, 100 mg/kg) added to anti-PD-L1; FIG. 38
# Description: MC38 tumor-bearing mice were treated with Compound I (daily×28 days, IP, 100 mg/kg) with or without anti-PD-L1 (biweekly×2 weeks, IP, 100 ug/animal) and tumor volume was evaluated.
structure (smiles),measurement,setting,value
"O=C1[O][Pt]2([NH][C@@H]3CCCC[C@H]3[NH]2)[O]C1=O [Oxaliplatin, oxaliplatin, reference compound]",Complete Response %,[1],10%
same,Objective Response Rate %,[1],10%
same,Overall Survival (OS),[1],31
same,Partial Response %,[1],0%
same,Complete Response %,[2],22%
same,Objective Response Rate %,[2],22%
same,Overall Survival (OS),[2],36
same,Partial Response %,[2],0%
"O=c1[nH]cc(F)c(=O)[nH]1 [Compound 5-FU, 5-Fluorouracil]",Overall Survival @ D29%,[3]; Day 29,30%
same,Complete Response %,[3]; MC38,0%
same,Objective Response Rate %,[3]; MC38,0%
same,Partial Response %,[3]; MC38,0%
same,Progressive Disease %,[3]; percent of tumors that have doubled in size by Day 29,100%
"CN1CCN(c2ccc(Nc3ncc4cc5n(c4n3)C3(CCCCC3)CNC5=O)nc2)CC1 [Compound I, trilaciclib]",interferon-gamma gene expression in tumor,[4],Upregulation
same,IL-2 production,[5]; FIG. 12,enhanced
same,IFNγ production,[5]; FIG. 13,preserved
same,T cell activation (CD69+ CD4+ and CD8+ T cells),[6],Enhanced T Cell Activation
same,proliferation of CD8+ T cells in the presence of Tregs treated with Compound I,[7],dose-dependent increase in proliferation
same,anti-tumor efficacy,[8],consistently enhanced anti-tumor efficacy
same,"expression of genes Il2, Il18, and Lta (positive regulation of interferon-gamma production)",[9]; FIGS. 25-27,Up-regulated
same,"expression of genes Cdkn1a, Cxcl1, Il6, Il10, Il19, Ptgs2 (reactive oxygen species metabolism)",[9]; FIGS. 32-37,Down-regulated
same,proliferation of intra-tumor lymphoid and myeloid immune cell populations (EdU),[10],transient and reversible inhibition of cell proliferation
same,Complete Response %,[1],10%
same,Objective Response Rate %,[1],20%
same,Overall Survival (OS),[1],22
same,Partial Response %,[1],10%
same,Complete Response %,[2],0%
same,Objective Response Rate %,[2],0%
same,Overall Survival (OS),[2],19
same,Partial Response %,[2],0%
same,phospho-Rb level in Tregs,[11],dose-dependent down-regulation
same,anti-tumor effect (tumor volume),[12],"does not enhance the anti-tumor effect and, in fact, causes some attenuation"
